Results as given in ChEMBL document CHEMBL3507680, “University of Dundee, Gates Library screen for HepG2 cell viability”.

assay: Human HepG2 cell viability assay in 384 well format; type: toxicity, cell-based; parameters: dose 125 nL, time 70.5 hour; cytotoxicity at 70.5 h: concentration not given beside the values; settings: HepG2 cells, read-out: Inhibition

SMILES	cytotoxicity at 70.5 h [%]
CSc1ccccc1C(C(=O)O)N1CCN(Cc2ccccn2)CC1 (stereo not drawn)	17
COc1cc(C(=O)N2CCC3(CC2)Nc2ccccc2NC3=O)ccn1	19
O=C(c1ccccc1N1CCOCC1)N1CCCC1Cn1cccn1 (stereo not drawn)	-4.2
c1cc(-c2c[nH]c([C@@H]3COCCN3Cc3csnn3)n2)ccn1	12.8
O=c1c(NCc2ccncc2)c(NCC(O)CN2CCOCC2)c1=O (stereo not drawn)	-17.9
Cc1noc(C2CCCN(C(=O)c3ccc(Br)o3)C2)n1 (stereo not drawn)	19.7
COc1cc(C(=O)N2CCCC(CNS(C)(=O)=O)C2)ccc1C (stereo not drawn)	15.8
CC(C)(CO)NC(=O)C1CCC(=O)N(Cc2ccc(Cl)cc2)C1 (stereo not drawn)	-8.51
CC1CCCN1Cc1cccc(C(=O)Nc2ccc3[nH]c(=O)oc3c2)c1 (stereo not drawn)	30.6
CCc1nn(C)c2[nH]nc(NC(=O)c3cccnc3OC)c12	-112
CN(C)Cc1nn(C)c2c1CCN(C(=O)c1cccnc1)C2	-20.7
COc1cc(C)c2c(c1C)C[C@@H](C(C)C(=O)O)CC2 (stereo partly drawn)	-3.12
O=C(Nc1cccnc1-n1cncn1)N(C1CCCC1)C1CC1	-7.6
CC(C)c1cc(NC(=O)Cn2ccc(=O)c3ccccc32)[nH]n1	5.53
CCc1c(C)nn2c(O)cc(C3CCN(C(=O)c4ccccn4)C3)nc12 (stereo not drawn)	-2.35
Cn1cc(C(=O)N2CCCC(c3ccncc3)C2)cn1 (stereo not drawn)	-7.32
COc1cccc(CC(=O)N2CCCC(n3nc(C)cc3C)C2)c1 (stereo not drawn)	-14.1
Cc1ccc(N2CC3(CCN(Cc4nccn4C)C3)CC2=O)s1 (stereo not drawn)	-14.5
O=C1COC2(CCN(Cc3ccco3)CC2)CN1CCn1cccn1	-6.38
COC(=O)C1CCN(C(=O)c2nnc3ccc(C)cc3n2)CC1	-6.57
COc1ccccc1CC(=O)NC(C)c1nc2cccnc2n1C(C)C (stereo not drawn)	-1.11
Cc1cc(C(=O)NC(CC(C)C)C(=O)Nc2cc[nH]n2)c(C)o1 (stereo not drawn)	0.859
Cc1ccc2cnn(CCC(=O)NCc3c(C)nn(C)c3C)c2c1	-6.87

SMILES	cytotoxicity at 70.5 h [%]
COc1cc(C(=O)N(Cc2cnn(C)c2)C(C)C)ccc1C	-1.26
CC(=O)NC1CCCN(C(=O)NCc2cc[nH]n2)C1 (stereo not drawn)	-1.94
Cc1nc(C)n(CC2CN(Cc3cccs3)Cc3nccn3C2)n1 (stereo not drawn)	-0.931
O=C(c1ccc(F)cc1)N1CCN2C[C@H](OCc3cccnc3)C[C@H]2C1	-11
O=C1OCCN1Cc1cccc(F)c1C(F)(F)F	-5.55
CC(=O)N1CCN(C[C@H]2CC[C@@H](Cc3ccc4ncccc4c3)O2)CC1	-10.6
CCn1cnnc1CCNC(=O)c1ccc(Br)cc1F	-4.19
CCC1(CC)CC(=O)N(CC(O)c2cccc(Br)c2)C1=O (stereo not drawn)	28.9
Cc1ccc(CN(CCCn2ccnc2)Cc2c(F)cccc2F)s1	24
O=C(O)C1CN(c2cccc(F)c2)CCO1 (stereo not drawn)	14.9
CCCSCC(=O)N1CCN(c2ccc(OC)cc2)CC1C (stereo not drawn)	-2.57
O=C1NCCCCC1Sc1nnc(N2CCCC2)n1C1CC1 (stereo not drawn)	6.7
c1cc2cc[nH]c2c(CC2CN(Cc3cncs3)C2)n1	7.7
O=C(Cc1c[nH]c(=O)[nH]c1=O)N1CCCCC1CCc1cccc(O)c1 (stereo not drawn)	-5.29
Cc1ccc(C(=O)N2C[C@H]3CCC[C@@]3(COCc3ccncc3)C2)cn1	-7.42
CC(C)[C@H](Nc1cc(-c2ccncc2)nc2ccnn12)C(N)=O	6.65
CN1CCN(C(=O)NC2CC2)Cc2cccnc21	0.459
Cc1noc(C)c1C(=O)N1CCC(Nc2cccnn2)CC1	0.523
O=C(NS(=O)(=O)c1ccccc1Cl)c1cccc2c1OCCO2	-3.53
Cc1ccc2nc(CNCCCN3CCCC3=O)cc(O)c2c1	14.6
O=C1N(Cc2ccccc2)C[C@H]2CN(Cc3ccccc3Cl)CCN12	-1.14
CCCN1CCN(C(=O)c2cc3ccccc3cn2)[C@H]2CS(=O)(=O)C[C@H]21	-12
c1cc(CN2C[C@H](OCC3CCOCC3)[C@H]3COC[C@H]32)cs1	-7.76

SMILES	cytotoxicity at 70.5 h [%]
COc1cccc2c1OCC(NC(=O)NC1CCN(C3CC3)CC1)C2 (stereo not drawn)	-5.93
Cc1ccc(N2CCCC(c3[nH]ncc3-c3ccccc3)C2)nn1 (stereo not drawn)	-8.56
Cc1cccc2c1ccn2CCC(=O)Nc1c2c(nn1C)CSC2	-7.62
COCc1cnc2n1CCN(C(=O)C1=CCCC1)C2C (stereo not drawn)	-14.6
CN(C)c1ccc(C(=O)Nc2ccn(Cc3ccccn3)n2)cn1	14.6
Cc1cccc(-n2cnnc2CCCN2CCOCC2)c1	-7.97
CCN1CCN(C(=O)c2ccc3c(c2)OCC(=O)N3)[C@H]2CS(=O)(=O)C[C@H]21	-12.3
O=C(Cc1ccc(-n2cccn2)cc1)N1CCCC(n2cccn2)C1 (stereo not drawn)	17.4
N#Cc1cccc(C(=O)N2C[C@H](CO)C[C@H](CN3CCCC3)C2)c1	2.99
CC(C)NC(=O)C1CCC2(CCNCC2)C1 (stereo not drawn)	-1.82
COc1ccc2nc(C3CC3)cc(C(=O)NCC(=O)N(C)C)c2c1	-2.45
CCN1CC(COC(=O)c2cccc(Br)c2)CC1=O (stereo not drawn)	-7.36
CC(C)[C@H]1CN(Cc2nccn2C)C[C@@H]1NC(=O)COCC(N)=O	-9.51
O=C1[C@@H]2CN(Cc3ccccn3)C[C@H]2CCN1c1cncnc1	-4.74
Cc1nc(CN2CCCC(N(C)CC3(O)CCCCC3)C2)no1 (stereo not drawn)	0.0355
Cc1cc(C(=O)NCc2ccccn2)no1	-6.09
CN(C)S(=O)(=O)N1CC[C@]2(C[C@H](OCc3ccncc3)CO2)C1	-0.865
Cc1ccsc1-c1nccn1CCN(C)S(C)(=O)=O	-1.88
CCc1cc(N(C)Cc2c(C)nn(C)c2C)n2nccc2n1	-2.89
O=C(CCc1nccs1)N1CCC(C(=O)O)(c2ccccc2)CC1	-0.696
Cc1noc(C)c1CSc1nc(=O)ccn1C(C)C	-3.07
CCN(Cc1ccc2c(c1)OCO2)Cc1nc(C)no1	-20.4
c1csc(CN2CCc3nnc(COc4cncnc4)n3CC2)c1	-6.3

SMILES	cytotoxicity at 70.5 h [%]
Cc1noc(C)c1CNC1CCN(c2ccccc2OC(F)F)C1 (stereo not drawn)	-3.18
O=C(NCCn1ccnc1-c1cc2n(n1)CCNC2)c1ccc(F)cc1	2.16
Cn1cc(CN2CCCC23CCN(C(=O)c2ccncc2)CC3)cn1	20.3
CCOCC1CN(Cc2ccc(F)cc2)Cc2nn(C)cc21 (stereo not drawn)	-11.9
Cn1cc(CC2CCN(C(=O)NCCCc3ccc(O)cc3)C2)cn1 (stereo not drawn)	-9.85
CNc1nc(CNC(=O)Nc2cccc(CSC)c2)cs1	-3.79
CCN(CCc1nccs1)C(=O)c1sccc1C	-9.19
Cc1nc(C(=O)N2CCCCC2)nn1-c1ccccc1Cl	-7.71
Cc1ccc(F)c(S(=O)(=O)NCc2cccc(C(=O)N3CCCC3)c2)c1	16.3
Cc1ccc(CN2CCC3(CC2)C(=O)N(CC(C)C)CCN3C)o1	-10.1
CCn1cc(CN2CCN(C(=O)c3cc(Br)cs3)CC2)c(C)n1	22.9
COc1ccc(N(Cc2ccco2)C(=O)C2CCOC2)cc1F (stereo not drawn)	-6.7
O=C(c1cccc2c1OCO2)N1CCCCC1Cn1cccn1 (stereo not drawn)	-10.8
Cc1nc(CN2CCCC2c2nc(C(C)C)no2)cs1 (stereo not drawn)	-2.96
CC(=O)N(Cc1ncc(C)o1)C1CCN(Cc2ccncc2Cl)C1 (stereo not drawn)	-1.73
CC(=O)c1ccc(NC(=O)N(CCN(C)C)Cc2ccc(C)s2)cc1	2.42
CN(CCN1CCOC1=O)CC(=O)Nc1ccc(Cl)c(C(F)(F)F)c1	-22
Cn1ccnc1CN1CCCN(C(=O)c2cccc(CC#N)c2)CC1	11.5
CCN(CC(=O)NCCc1nc(C)no1)Cc1ccc(Cl)cc1	-2.02
COCc1noc(C2(c3ccc(Br)cc3)CCOCC2)n1	-10.1
O=C(NC[C@H]1C[C@@H]2CCN1C[C@@H]2CN1CCCC1)c1ccco1	-4.55
COc1ccc2c(c1)NC(=O)C2OC(=O)CCc1ccc(F)cc1 (stereo not drawn)	2.64
Cc1cccnc1NC(=O)NCc1cccnc1OC(C)C	-6.17

SMILES	cytotoxicity at 70.5 h [%]
CCCn1c(C)c(CC(=O)NCC(N)=O)c2c1CC(C)(C)CC2=O	0.554
CS(=O)(=O)CCSCc1cccc2cccnc12	-4.91
CC(=O)c1ccc(N2CCC3(CC2)CC(=O)N(C)C3)nc1	4.13
CC(C)S(=O)(=O)N1CCC(c2[nH]ncc2S(C)(=O)=O)C1 (stereo not drawn)	-2.31
CC(C)COC1CC2(CCN(C(=O)Cc3ccccn3)CC2)C1	-11.8
Clc1ccc(OCCNC2(c3ccc(Br)cc3)CCOCC2)cc1	9.53
Cc1nc(N(CCC(N)=O)Cc2ccccc2)c2nc(C)oc2n1	9.6
O=C(CN1CCN(C(=O)c2sccc2C2CC2)CC1)NC1CC1	8.72
CN1CCNC(=O)C1CC(=O)NCCc1cnn(-c2ccccc2)c1 (stereo not drawn)	19.9
Cc1cc(C(=O)N2CC[C@H]3[C@@H]2CCC(=O)N3c2ccccc2)no1	-8.05
COc1ccc(C)cc1-n1ccc(C(=O)NCC2CCCOC2)n1 (stereo not drawn)	-11.7
COc1cc(-c2nc3c([nH]2)CCCNC3=O)ccc1OC(C)C	-3.41
Cc1cc(CN2CCN(C(=O)NC(C)c3cccnc3)CC2)on1 (stereo not drawn)	-11.7
Cc1ncc(CN(C)CC2CCCN2c2cccnn2)s1 (stereo not drawn)	8.83
CC1c2ncc(Cn3cccn3)n2CCN1c1ncccn1 (stereo not drawn)	-8.84
CS(=O)(=O)N[C@@H]1CN(C(=O)c2ccccn2)C[C@@H]2CCCO[C@@H]21	-9.33
CN(Cc1nnnn1C1CC1)CC1COc2ccccc2O1 (stereo not drawn)	-0.558
Cn1ncc2ccc(C3CCCN(C(=O)Cc4cccs4)C3)nc21 (stereo not drawn)	13.1
CC(=O)N1CCC(C(=O)NCCN2CCCC(C)C2)CC1 (stereo not drawn)	-7.29
COCC1c2c(cnn2C)CCN1C(=O)c1cscn1 (stereo not drawn)	-1.37
CC(=O)N1CCCCC[C@@H]2[C@@H]1[C@H](c1cccc(F)c1)CN2C(C)=O	-10.6
